Source: patent publication US5304631A, “Synthetic helizyme enzymes” (University of Colorado Foundation, Inc., priority 1990, dated 1994)

Columns and labels:
Format in all cases: biochemical
[1] = tested on: monomeric Chymohelizyme 1; assay: Inhibition of substrate hydrolysis by Chymohelizyme 1 by specific chymotrypsin inhibitors
Text: Inclusion of indole at a concentration equal to that of the substrate ZTONP caused approximately 70% inhibition of substrate hydrolysis.

[2] = Hydrolysis of ZTONP (esterase activity), followed spectrophotometrically; details: initial turnover number
Method: Kinetic studies of purified Chymohelizyme 1 were performed using ATEE, BTEE or ZTONP as the substrate.
The progress of the reaction was followed spectrophotometrically. Progress of the hydrolysis of ATEE was followed by titration.

[3] = Hydrolysis of ATEE (esterase activity), followed by titration; details: pH 8.1, 0.05 molar sodium chloride solution
Method: Hydrolysis of ATEE at pH 8.1 in 0.05 molar sodium chloride solution followed classical Michaelis-Menten kinetics; kM=1.0 mM and kcat=0.042/sec(corresponding values for chymotrypsin are 0.7 mM; 3.0/sec), showing an activity approximately 1% that of chymotrypsin for this substrate.
Hydrolysis of BTEE and ZTONP were performed as described (Meth. Enzymol. volume XIX, Academic Press, New York, 1970, pp. 38-41). The progress of the reaction was followed spectrophotometrically. Progress of the hydrolysis of ATEE was followed by titration.

## c1ccc2[nH]ccc2c1 [indole]
[1]
  inhibition of hydrolysis of substrates by monomeric Chymohelizyme 1: inhibited
[1]; inhibitor at a concentration equal to that of the substrate ZTONP
  inhibition of substrate hydrolysis: approximately 70%

## chymotrypsin
[2]
  turnover number: 300 s⁻¹
[3]
  Km: 700 µM
  kcat: 3.0 s⁻¹

## Cc1ccc(O)cc1 [p-cresol]
[1]
  inhibition of hydrolysis of substrates by monomeric Chymohelizyme 1: inhibited
